Measurements as given in patent US10465196B2, “Treatment of C9FTD/ALS by targeting RNA expanded repeat sequences” (THE SCRIPPS RESEARCH INSTITUTE, priority 2014, dated 2019).
“Also recorded” adds a separate entry of the source.

Columns and labels:
r(GGGGCC)8 [1] = details: cited from earlier work
C9ORF72+ iNeurons [2] = assay: RNA-FISH of RNA foci in iNeurons; type: cell-based, human; details: three C9ORF72+ iNeuron lines; 2 μM, four days
Description: Qiagen) for 15 min at 37° C., or with DNase I (3 U/ml; Invitrogen) for 30 minutes at room temperature, prior to dehydration. Cells were incubated in hybridization buffer (10% dextran sulfate, 50% formamide, 50 mM sodium phosphate buffer (pH 7), 2×SSC) at 66° C. for 20-60 min. […] Cells were hybridized with probe in a sealed, light-protected chamber for 16 h-24 h at 66° C. The coverslips were subsequently washed with 0.1% Tween-20/2×SSC for 5 min followed by three 10 min stringency washes in 0.1×SSC at 66° C. The cells were stained with Hoechst (Invitrogen), rinsed with DEPC-treated water, dehydrated through 70% and 100% ethanol and air dried. Coverslips were mounted with Prolong Gold antifade reagent (Life Technologies). […] For each of 3 cell lines, 3 fields were randomly selected per condition. For each field, the number of foci-positive nuclei and the total number of nuclei were counted to determine the average percentage of foci-positive cells.

[3] = tested on: (GGGGCC)66-expressing cells; assay: RNA-FISH of nuclear foci; type: cell-based; details: compound treatment 24 h
Description: RNA fluorescence in situ hybridization (FISH) of ([NT]-expressing cells. […] Cells were hybridized with denatured Cy3-conjugated ([NT])4 probe (2 ng/μl) in hybridization buffer (50% formamide, 10% dextran sulfate, 0.1 mg/mL yeast tRNA, 2×SSC, 50 mM sodium phosphate) overnight at 37° C. Cells were then washed once with 40% formamide/1×SSC for 30 min at 37° C. and twice with DEPC-PBS at room temperature for 5 min, followed by counterstaining with Hoechst 33258 (1 μg/ml, Invitrogen). Immunostained cells were visualized using a Zeiss Axiovert Fluorescence Microscope with apotome module. […] To quantify foci-bearing cells, coverslips mounted on slides were scanned by Aperio ScanScope. Ten fields were randomly selected under 20× magnification. For each field, the number of foci-positive nuclei and the total number of nuclei were counted using MetaMorph software. These counts were used to determine the average percentage of foci-positive cells for each condition.

[4] = tested on: hairpin with a fully paired stem; assay: Biolayer interferometry (BLI) binding affinity, fully paired hairpin
Description: (§1) The RNA (200 μL aliquots) was then added to a black 96-well plate (Greiner Bio-One). […] A sample with no compound was used as background. All experiments were performed at 30° C. with agitation set to 1000 rpm. The biotinylated RNA (ligand) was loaded onto the surface of streptavidin biosensors (SA) for 660 s. […] Biosensors were then washed in 1× Kinetics Buffer for 300 s followed by association of the compound (analyte) for 5000 s. Finally, dissociation of the ligand-analyte interaction was analyzed for 5000 s. The resulting curves were corrected by subtracting the response recorded on a sensor loaded with ligand (RNA) but incubated with no analyte (compound). Data analyses and curve fitting were completed using Octet Data Analysis, version 7.0. Experimental data were fitted using the 2:1 heterogeneous ligand (HL) curve fit. Global analysis of all data sets acquired for different analyte concentrations, assuming reversible binding, was completed using nonlinear least squares fitting. […] [formula] where [Analyte] is the concentration of compound, Req is the estimated response at equilibrium, kon is association constant, koff is dissociation constant.

r(GGGGCC)8 [5] = assay: Biolayer interferometry (BLI) binding affinity, r(GGGGCC)8; details: BLI kinetic binding; no additional cation
Description: as §1

[6] = tested on: r(CCCCGG)66-expressing cells; assay: RAN translation in cells expressing antisense repeats (immunoassay); type: cell-based; details: 100 μM, 24 h
Description: Immunoassay analysis of c9RAN proteins. As an alternative means to measure poly(GP) proteins, Meso Scale Discovery (MSD) electrochemiluminescence detection technology was utilized to establish sandwich immunoassays using polyclonal anti-GP as capture and detection antibodies. […] Poly(GP) proteins were also measured in lysates from cultured cells (10-35 μg of protein per well) prepare as described above, or from RIPA-soluble homogenates from frozen frontal cortical tissues (35 μg of protein per well). Brain homogenates were prepared as previously described (Almeida et al., 2013). In brief, tissue was lysed in cold RIPA buffer and sonicated on ice. Lysates were cleared by centrifugation at 100,000 g for 30 min at 4° C. The supernatant was collected and protein concentration was determined by BCA assay. […] A second MSD sandwich immunoassay was developed for the detection of poly(PR) proteins using polyclonal anti-PR as capture and detection antibodies. To validate specificity of the poly(PR) assay, lysates from cells transfected to express each possible protein RAN translated from the sense or antisense transcripts of the expanded C9ORF72 repeat [GFP-(GA)5, GFP-(GR)5, GFP-(GP)5, GFP-(PA)5, GFP-(PR)5] were assayed, as were lysates from cells expressing ([…]. 2F). Western blot analysis and RNA-FISH of cells expressing antisense repeats. […]

r(CGG)12 = assay: Biolayer interferometry (BLI) binding affinity, r(CGG)12
Description: as §1

r(GGGGCC)66 = assay: Identification of cellular RNA targets by 1a-CA-biotin pull-down and qRT-PCR (competitive profiling); type: cell-based; details: co-treatment with 1a-CA-biotin and compound
[7] = tested on: r(CCCCGG)66-expressing cells; assay: RNA-FISH of cells expressing antisense repeats; type: cell-based
Description: Western blot analysis and RNA-FISH of cells expressing antisense repeats. To examine the effect of 1a on RAN translation and foci formation in cells expressing antisense ([NT]) repeats, we utilized a previously described ([NT])66 expression vector (Gendron et al., 2013). Transfection, treatment, Western blotting, and RNA-FISH using a [NT] probe from IDT, were conducted as described above for ([NT])66-expressing cells.

[8] = tested on: (GGGGCC)66-expressing cells; assay: Poly(GP) MSD immunoassay of cell lysates; type: cell-based; details: 24 h
Description: Western blot analysis of c9RAN proteins. HEK293 cells were cultured in Opti-Mem supplemented with 10% FBS and 1% penicillin/streptomycin. […] Twenty-four hours later, cell pellets were collected. […] Western blotting was performed as previously described (Gendron et al., 2013). […] After centrifugation at 16,000×g for 20 min at 4° C., the supernatant was collected and protein concentration determined by BCA assay. […] Anti-GAPDH (1:10,000, BioDesign) was used to ensure equal loading among wells. Membranes were washed three times for 10 min in TBST and incubated with donkey anti-rabbit or anti-mouse IgG conjugated to horseradish peroxidase (1:5000; […] Protein expression was visualized by enhanced chemiluminescence treatment and exposure to film. Immunoassay analysis of c9RAN proteins. As an alternative means to measure poly(GP) proteins, Meso Scale Discovery (MSD) electrochemiluminescence detection technology was utilized to establish sandwich immunoassays using polyclonal anti-GP as capture and detection antibodies. […] Poly(GP) proteins were also measured in lysates from cultured cells (10-35 μg of protein per well) prepare as described above, or from RIPA-soluble homogenates from frozen frontal cortical tissues (35 μg of protein per well). Brain homogenates were prepared as previously described (Almeida et al., 2013). In brief, tissue was lysed in cold RIPA buffer and sonicated on ice. Lysates were cleared by centrifugation at 100,000 g for 30 min at 4° C. The supernatant was collected and protein concentration was determined by BCA assay.

r(GGGGCC)8 [9] = assay: Optical melting of r(GGGGCC)8 in the presence of small molecule; type: binding; details: for increase of Tm of r(GGGGCC)8 / stabilization of the RNA (r(GGGGCC)8 stability): 1 μM RNA, 3 μM compound; for increase of Tm of r(GGGGCC)8 / stabilization of the RNA (r(GGGGCC)8 stability) / ΔG / Tm: 100 mM NaCl; for ΔG: 37° C.; for ΔG / ΔH / ΔS / Tm: r(GGGGCC)8 1 uM + compound 3 μM; for ΔH / ΔS: 10 mM Tris HCl pH 7.4, 100 mM NaCl
C9ORF72+ iNeurons [10] = assay: Poly(GP) and poly(PR) inclusions in iNeurons (immunocytochemistry); type: cell-based, human; details: 2 or 4 μM, four days
[11] = tested on: cells expressing (CGG)88 placed in the 5'UTR of GFP; assay: Western blot analysis of RAN translation in a FXTAS cell model; type: cell-based; details: COS7 cells, anti-GFP
Description: Western blot analysis of RAN translation in a FXTAS cell model. Studies were completed using a plasmid in which r(CGG)88 is embedded in the 5′ UTR of an open reading frame encoding GFP (Todd et al., 2013). Therefore, RAN products are fused to GFP and can be detected using an anti-GFP antibody (Todd et al., 2013). COS7 cells were grown as monolayers in 96-well plates in growth medium (1× DMEM, 10% FBS, and 1× GlutaMax (Invitrogen)). […] Compound 1a was added to the transfection cocktail, which was then applied to the cells. The transfection cocktail was replaced with growth medium containing 1a approximately 5 h post transfection, and the cells were incubated at 37° C. for 18 h. Cells were lysed in the plate using 100 μl/well of MPER Mammalian Protein Extraction Reagent (Pierce Biotechnology) containing 1 μl of Halt Protease Inhibitor cocktail (Thermo Scientific). Cellular proteins were separated by SDS-PAGE (10% polyacrylamide) and then transferred to a PVDF membrane by wet transfer method. Protein content was analyzed by Western blotting by using anti-GFP (Santa Cruz) or anti-β-actin (Sigma Aldrich) as primary antibodies and anti-IgG-horseradish peroxidase conjugate as the secondary antibody. Chemiluminescent signal was generated by SuperSignal West Pico Chemiluminescent substrate (Thermo Scientific), and the blot was imaged with X-ray film (Phenix Research).

C9ORF72 mRNA = assay: qRT-PCR of C9ORF72 mRNA in iNeurons; type: cell-based, human; details: 4 μM, 4 d; all variants and long form
Description: RNA was extracted using the Direct-Zol RNA kit combined with in-column DNase I digestion, as per the manufacturer's instructions (Zymo Research, Irvine, Calif., USA). RNA integrity was obtained using the Agilent 2100 Bioanalyzer (Agilent Technologies, Santa Clara, Calif., USA). cDNA was obtained after reverse transcription polymerase chain reactions (RT-PCR) using approximately 500 ng of RNA with random primers and the High Capacity cDNA Transcription Kit (Applied Biosystems, Foster City, Calif., USA) as per the manufacturer's instructions. […] Relative quantification of C9ORF72 variants was determined using the ΔΔCt method and normalized to GAPDH.

[12] = tested on: (GGGGCC)66-expressing cells; assay: Western blot analysis of c9RAN proteins (RAN translation); type: cell-based; details: HEK293 cells; 100 μM, 24 h (for compound 3)
[13] = tested on: r(CGG)60-expressing cells; details: cited from earlier work

| Structure (SMILES) | percentage of foci-positive cells [3] | binding to a hairpin with a fully paired stem compared with r(GGGGCC)8 [4] | Kd (r(GGGGCC)8 [5]) | Kd for r(CGG)12 compared with r(GGGGCC)8 (r(CGG)12) | amount of r(GGGGCC)66 that forms an adduct with 1a-CA-biotin in the presence of compound (r(GGGGCC)66) | increase of Tm of r(GGGGCC)8 (r(GGGGCC)8 [9]) | stabilization of the RNA (r(GGGGCC)8 stability) (r(GGGGCC)8 [9]) | ΔG (r(GGGGCC)8 [9]) | ΔH (r(GGGGCC)8 [9]) | ΔS (r(GGGGCC)8 [9]) | Tm (r(GGGGCC)8 [9]) | poly(GA) protein production (RAN translation) [12] | synthesis of poly(GP) proteins (RAN translation) [12] | other results |
| --- | --- | --- | --- | --- | --- | --- | --- | --- | --- | --- | --- | --- | --- | --- |
| C[n+]1ccc(-c2c3nc(c(-c4cc[n+](C)cc4)c4ccc([nH]4)c(-c4cc[n+](C)cc4)c4ccc([nH]4)c(-c4cc[n+](C)cc4)c4nc2C=C4)C=C3)cc1 [TMPyP4] | – | – | – | – | – | – | – | – | – | – | – | – | – | binding to r(GGGGCC)8 in vitro (r(GGGGCC)8 [1]): binds |
| Cc1c2cc[n+](CCN3CCCCC3)cc2c(C)c2c1[nH]c1ccc(O)cc12 [Compound 1a] | significantly decreased | bind more weakly | 9.7 µM | similar | significantly depleted | 3.1 °C | 0.95 kcal/mol | -9.93 ± 0.15 kcal/mol | -74.4 ± 1.0 kcal/mol | -208 ± 3 cal/K · mol | 84.7 ± 0.2 °C | significantly decreased | significantly decreased | percentage of cells with RNA foci (C9ORF72+ iNeurons [2]): significantly decreased; poly(GP) proteins RAN translated from antisense transcripts [6]: no effect; poly(PR) proteins RAN translated from antisense transcripts [6]: no effect; percentage of cells bearing r(CCCCGG) foci [7]: no change; decrease in poly(GP) protein ([8]; 25 μM): 10%; decrease in poly(GP) protein ([8]; 50 μM): 18%; decrease in poly(GP) protein ([8]; 100 μM): 47%; poly(PR) expression (inclusions), synthesized from the antisense transcript (C9ORF72+ iNeurons [10]): no change; percentage of cells with poly(GP) inclusions (RAN translation of poly(GP)) (C9ORF72+ iNeurons [10]; listed as la): significantly decreased; also recorded: dose-dependent decrease; RAN translation in cells expressing (CGG)88 [11]: inhibits RAN translation; downstream canonical translation (GFP) [11]: does not affect; C9ORF72 mRNA levels (C9ORF72 mRNA): no effect; nuclear foci in r(CGG)60-expressing cells [13]: does reduce nuclear foci |
| CCN(CC)CCNC(=O)c1cc2cc(NC(=O)c3cc4cc(N)ccc4[nH]3)ccc2[nH]1 [Compound 3] | not | bind more weakly | 16 µM | similar | significantly depleted | did not significantly affect | did not significantly affect | -9.10 ± 0.24 kcal/mol | -71.1 ± 1.5 kcal/mol | -200 ± 4 cal/K · mol | 82.2 ± 0.2 °C | did not influence | modestly inhibited | – |
